How the values were obtained:
[1] = biological target: T1, human S1P1 receptor (Homo sapiens, UniProt P21453); test: GTP γ35S binding assay for S1P1 activity; format: biochemical; details: membranes of cells stably expressing S1P1 receptor
T1 construct: expressed in transfected cells; membranes used
Protocol: Compounds were synthesized and tested for S1P1 activity using the GTP γ^35S binding assay. These compounds may be assessed for their ability to activate or block activation of the human S1P1 receptor in cells stably expressing the S1P1 receptor.
GTP γ^35S binding was measured in the medium containing (mM) HEPES 25, pH 7.4, MgCl2 10, NaCl 100, dithitothreitol 0.5, digitonin 0.003%, 0.2 nM GTP γ^35S, and 5 μg membrane protein in a volume of 150 μl. Test compounds were included in the concentration range from 0.08 to 5,000 nM unless indicated otherwise. Membranes were incubated with 100 μM 5′-adenylylimmidodiphosphate for 30 min, and subsequently with 10 μM GDP for 10 min on ice. Drug solutions and membrane were mixed, and then reactions were initiated by adding GTP γ^35S and continued for 30 min at 25° C. Reaction mixtures were filtered over Whatman GF/B filters under vacuum, and washed three times with 3 mL of ice-cold buffer (HEPES 25, pH7.4, MgCl2 10 and NaCl 100). Filters were dried and mixed with scintillant, and counted for ^35S activity using a β-counter. Agonist-induced GTP γ^35S binding was obtained by subtracting that in the absence of agonist. Binding data were analyzed using a non-linear regression method. In case of antagonist assay, the reaction mixture contained 10 nM […] in the presence of test antagonist at concentrations ranging from 0.08 to 5000 nM.

[2] = tested on: female C57BL6 mice; test: Lymphopenia assay in mice (in vivo blood lymphocyte depletion); details: subcutaneous, 10 mg/Kg or 2 mg/Kg, 24 hours after dosing, FIG. 1 / FIG. 2
Protocol: Test drugs are prepared in a solution containing 3% (w/v) 2-hydroxy propyl R-cyclodextrin (HPBCD) and 1% DMSO to a final concentration of 1 mg/ml, and subcutaneously injected to female C57BL6 mice (CHARLES RIVERS) weighing 20-25 g at the dose of 10 mg/Kg. Blood samples are obtained by puncturing the submandibular skin with a Goldenrod animal lancet at 5, 24, 48, 72, and 96 hrs post drug application. Blood is collected into microvettes (SARSTEDT) containing EDTA tripotassium salt. Lymphocytes in blood samples are counted using a HEMAVET Multispecies Hematology System, HEMAVET HV950FS (Drew Scientific Inc.). (Hale, J. et al Bioorg. & Med. Chem. Lett. 14 (2004) 3351).
A lymphopenia assay in mice, as previously described, was employed to measure the in vivo blood lymphocyte depletion after dosing Compounds 9, 10, 11 and 14, (FIG. 1) and Compounds 15, 17, 18 and 20, (FIG. 2). These S1P agonists (or modulators) are useful for S1P-related diseases, and exemplified by the lymphopenia in vivo response. In general, test compounds were prepared in a solution containing 3% (w/v) 2-hydroxy propyl β-cyclodextrin (HPBCD) and 1% DMSO to a final concentration of 1 mg/ml, and subcutaneously injected to female C57BL6 mice (CHARLES RIVERS) weighing 20-25 g at the dose of 10 mg/Kg or 2 mg/Kg. Blood samples were obtained by puncturing the submandibular skin with a Goldenrod animal lancet at 24, 48, 72 and 96 hrs post drug application. Blood was collected into microvettes (SARSTEDT) containing EDTA tripotassium salt. Lymphocytes in blood samples were counted using a HEMAVET Multispecies Hematology System, HEMAVET HV950FS (Drew Scientific Inc.).

T1 sequence (P21453 whole entry): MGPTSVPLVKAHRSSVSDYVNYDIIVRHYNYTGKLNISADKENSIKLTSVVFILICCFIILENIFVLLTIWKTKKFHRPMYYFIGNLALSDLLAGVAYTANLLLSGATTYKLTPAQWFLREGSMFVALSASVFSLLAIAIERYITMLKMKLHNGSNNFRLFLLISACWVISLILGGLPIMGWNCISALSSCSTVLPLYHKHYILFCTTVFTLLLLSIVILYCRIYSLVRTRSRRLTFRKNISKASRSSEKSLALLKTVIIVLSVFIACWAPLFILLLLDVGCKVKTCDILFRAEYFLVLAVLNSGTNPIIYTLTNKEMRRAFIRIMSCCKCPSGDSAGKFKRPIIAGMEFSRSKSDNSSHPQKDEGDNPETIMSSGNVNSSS

SMILES	EC50 [1]	lymphocyte count after 24 hours [2]
CCCCCCCc1ccc(-c2ccc(CNCCCP(=O)(O)O)c3ncccc23)c(F)c1 [Compound 9, [3-({[5-(2-fluoro-4-heptylphenyl)quinolin-8-yl]methyl}amino)propyl]phosphonic acid]	13.6 nM	lowered lymphocyte count
CCCCCCc1ccc(-c2ccc(CNCCOP(=O)(O)O)c3ncccc23)cc1 [Compound 5, 2-({[5-(4-hexylphenyl)quinolin-8-yl]methyl}amino)ethyl dihydrogen phosphate]	31.1 nM	
CCCCCCCc1ccc(-c2ccc(CNCCCP(=O)(O)O)c3ncccc23)cc1F [Compound 10, [3-({[5-(3-fluoro-4-heptylphenyl)quinolin-8-yl]methyl}amino)propyl]phosphonic acid]	223 nM	lowered lymphocyte count
O=P(O)(O)CCCNCc1ccc(-c2ccc(CCCc3ccccc3)c(F)c2)c2cccnc12 [Compound 2, {3-[({5-[3-fluoro-4-(3-phenylpropyl)phenyl]quinolin-8-yl}methyl)amino]propyl}phosphonic acid]	5.95 nM	
CCCCCCc1ccc(-c2ccc(CNCCC(=O)O)c3ncccc23)cc1 [Compound 7, 3-({[5-(4-hexylphenyl)quinolin-8-yl]methyl}amino)propanoic acid]	872 nM	
CCCCCCCCc1ccc(-c2ccc(CNCCCP(=O)(O)O)c3ncccc23)cc1 [Compound 12, [3-({[5-(4-octylphenyl)quinolin-8-yl]methyl}amino)propyl]phosphonic acid]	11.2 nM	
CCCCCCc1ccc(-c2ccc(CNCCCP(=O)(O)O)c3ccccc23)cc1 [Compound 3, [3-({[4-(4-hexylphenyl)-1-naphthyl]methyl}amino)propyl]phosphonic acid]	54.2 nM	
O=P(O)(O)CCCNCc1ccc(-c2ccc(CCCc3ccccc3)cc2)c2cccnc12 [Compound 6, {3-[({5-[4-(3-phenylpropyl)phenyl]quinolin-8-yl}methyl)amino]propyl}phosphonic acid]	8.3 nM	
CCCCC(CC)CCc1ccc(-c2ccc(CNCCCP(=O)(O)O)c3ncccc23)cc1 (centres unmarked) [Compound 11, {3-[({5-[4-(3-ethylheptyl)phenyl]quinolin-8-yl}methyl)amino]propyl}phosphonic acid]	6.97 nM	lowered lymphocyte count
CCCCCCc1ccc(-c2ccc(CNCCCP(=O)(O)O)c3ncccc23)cc1F [Compound 13, [3-({[5-(3-fluoro-4-hexylphenyl)quinolin-8-yl]methyl}amino)propyl]phosphonic acid]	1.3 nM	
CCCCCCc1ccc(-c2ccc(CNCCCP(=O)(O)O)c3ncccc23)cc1 [Compound 4, [3-({[5-(4-hexylphenyl)quinolin-8-yl]methyl}amino)propyl]phosphonic acid]	0.6 nM	
O=P(O)(O)CCCNCc1ccc(-c2ccc(CCC3CCCCC3)cc2)c2cccnc12 [Compound 14, {3-[({5-[4-(2-cyclohexylethyl)phenyl]quinolin-8-yl}methyl)amino]propyl}phosphonic acid]	1.5 nM	lowered lymphocyte count
Cc1ccccc1CCCc1ccc(-c2ccc(CNCCCP(=O)(O)O)c3ncccc23)cc1 [Compound 8, (3-{[(5-{4-[3-(2-methylphenyl)propyl]phenyl}quinolin-8-yl)methyl]amino}propyl)phosphonic acid]	3.8 nM	

More lines, main results first:

EC50 [1]	SMILES	lymphocyte count after 24 hours [2]
0.3 nM	Cc1cccc(CCCc2ccc(-c3ccc(CNCCCP(=O)(O)O)c4ncccc34)cc2F)c1 [Compound 17, (3-{[(5-{3-fluoro-4-[3-(3-methylphenyl)propyl]phenyl}quinolin-8-yl)methyl]amino}propyl)phosphonic acid]	lowered lymphocyte count
2.5 nM	CCCCC(CC)CCc1ccc(-c2ccc(CNCCCP(=O)(O)O)c3ncccc23)cc1F (centres unmarked) [Compound 19, {3-[({5-[4-(3-ethylheptyl)-3-fluorophenyl]quinolin-8-yl}methyl)amino]propyl}phosphonic acid]	
1 nM	Cc1ccc(CCCc2ccc(-c3ccc(CNCCCP(=O)(O)O)c4ncccc34)cc2F)cc1 [Compound 18, (3-{[(5-{3-fluoro-4-[3-(4-methylphenyl)propyl]phenyl}quinolin-8-yl)methyl]amino}propyl)phosphonic acid]	lowered lymphocyte count
2.63 nM	CCCCC(CC)CCc1ccc(-c2ccc(CNCCOP(=O)(O)O)c3ncccc23)cc1F (centres unmarked) [Compound 23, 2-[({5-[4-(3-ethylheptyl)-3-fluorophenyl]quinolin-8-yl}methyl)amino]ethyl dihydrogen phosphate]	
1 nM	Cc1ccccc1CCCc1ccc(-c2ccc(CNCCCP(=O)(O)O)c3ncccc23)cc1F [Compound 16, (3-{[(5-{3-fluoro-4-[3-(2-methylphenyl)propyl]phenyl}quinolin-8-yl)methyl]amino}propyl)phosphonic acid]	
192 nM	CCCCCCc1ccc(-c2ccc(CNCCO)c3ncccc23)cc1 [Compound 15, 2-({[5-(4-hexylphenyl)quinolin-8-yl]methyl}amino)ethanol]	lowered lymphocyte count
137 nM	CCCCC(CC)CCc1ccc(-c2ccc(CNCCO)c3ncccc23)cc1F (centres unmarked) [Compound 22, 2-[({5-[4-(3-ethylheptyl)-3-fluorophenyl]quinolin-8-yl}methyl)amino]ethanol]	
1.68 nM	O=P(O)(O)CCCNCc1ccc(-c2ccc(CCC3CCCCC3)c(F)c2)c2cccnc12 [Compound 20, {3-[({5-[4-(2-cyclohexylethyl)-3-fluorophenyl]quinolin-8-yl}methyl)amino]propyl}phosphonic acid]	lowered lymphocyte count
